According to article PMC4965013, “Open Source Drug Discovery with the Malaria Box Compound Collection for Neglected Diseases and Beyond” (PLoS Pathogens, 2016):
Values joined by “and” are separate entries in the source; they are usually repeats but may differ in a detail not shown here. Identical values can stand only once.

Assays:
[1] = test system: Strongyloides stercoralis; test: Strongyloides stercoralis Scynexis; assay type: cell-based; settings: 10µM
Description: Supplement ppat.1005763.s002.xlsx, sheet "S1 Table Heat Map" | column: Strongyloides stercoralis % dead at 10µM Scynexis

[2] = test system: Onchocerca lienalis microfilariae; test: Onchocerca lienalis microfilariae motility; assay type: cell-based; settings: 12.5µM
Description: Column DW: Townson group (data presented first in this paper). Screening of Onchocerca lienalis microfilariae for motility inhibition in microplates. Methods: Microfilariae are obtained from samples of peri-umbilical skin of freshly slaughtered, naturally infected cattle in the UK. […] The results are then calculated as motility index scores and expressed as a percentage of the maximum obtainable. […] Merial) were immotile at the end of the trial.

Aedes aegypti = Aedes aegypti Scynexis; settings: 10µM
Description: Supplement ppat.1005763.s002.xlsx, sheet "S1 Table Heat Map" | column: Aedes aegypti % dead 48hr 10 µM Synexis

Mycobacterium marinum = test: M. marinum antibiotic assay; assay type: cell-based; settings: 10µM
Description: Columns FA-FC: Soldati Group (data presented first in this paper). M. marinum, D. discoideum, and Acathamoeba castellani assays. Each compound of the Malaria Box has been assayed at 10 µM in all three assays. First, the antibiotic activity was assayed directly against Mycobacterium marinum in its culture medium. Second, the toxicity and growth inhibitory effect of the compounds was assayed against the amoeba Dictyostelium discoideum in its culture medium. Finally, the “in cellulo” anti-infective activity of each compound was tested using the intracellular infection system Acanthamoeba castellanii-M. marinum. Values have been normalized using the DMSO carrier. For each assay, values have been normalized to 1.00 using the DMSO carrier, which has no detectable effect on D. discoideum nor M. marinum growth, while rifabutin was used as positive control for the antibiotic assay and the infection assay, as it abolishes M. marinum growth (normalized value under 0.10) in broth at 10 µM and intracellularly at 30 µM [150].

[3] = Kinetic Solubility at pH 7.4 (LC/CLND); assay type: physicochemical; settings: pH 7.4, aqueous buffer, kinetic from dmso stock; read-out: Kinetic Solubility >20µM at pH 7.4
Description: Columns GD-GJ: Wuxi Inc. data for MMV (data presented first in this paper) PK/DMPK Parameters: Fasted animals (Male CD-1 mouse, 7-9 weeks age, 30±10 g, n=3) obtained from an approved vendor (SLAC Laboratory Animal Co. Ltd., Shanghai, China or Sino-British SIPPR/BK Laboratory Animal Co. Ltd Shanghai, China) were administered with a single oral dose (140 μmol/kg) using DMSO: 1% HPMC (5:95) as a vehicle. Blood sampling was performed via the submandibular or saphenous vein (t=0.083, 0.25, 1, 2, 4, 6 and 9 h) and transferred into microcentrifuge tubes containing Sodium Heparin (1,000 IU/ml) as anti-coagulant placed on wet ice until processed for plasma by centrifugation at approximately 4°C, 3000×g for 15 min. Plasma samples were stored in polypropylene tubes, quick frozen over dry ice and kept at -70±10°C until LC/MS/MS analysis. LC/MS/MS methods for the quantitative determination compounds plasma levels were developed with an internal standard. […] (Phoenix WinNonlin, version 6.2.1, Pharsight, Mountain View, CA) and expressed as Cmax & AUC0-last. […] AUC0-last is the area under the curve expressed as >12 h*μM (Yes or No). Plasma protein binding assay (PPB) (CD-1 mouse and human) expressed as <95% bound, >95% bound, or >99% bound. Kinetic Solubility at pH 7.4 was determined by liquid chromatography/chemiluminescence nitrogen detection (LC/CLND) and was scored as greater than 20µM (Yes or No). hERG inhibition was measured at 11µM by the QPatch- HT system and is expressed as “Yes” if greater than 45% inhibited at 11µM and “No” if less than or equal to 45% inhibited at 11µM. As part of the Drug-Drug Interaction studies (DDI issues), 5 human and 1 mouse CYP isoforms (1A2, 2C9, 2C19, 2D6, 3A4-M, 3A4-T) were tested for inhibition assay at 10 µM. […] Otherwise DDI issues were scored as “No”. Positive and negative controls were run for each assay (Table 1).

[4] = test system: P. berghei liver stage in HepG2-A16-CD81EGFP; set-up: method as in ref [58, 65] (a number printed in a supplementary file, which may have a reference list of its own: not looked up in the article's list); settings: ref [58, 65], cited from earlier work; for P. berghei Liver stage activity summary: 50uM; for P. berghei Liver stage infection rate rep1 (luciferase) / P. berghei Liver stage infection rate rep2 (luciferase): 50µM
CYP3A4 mRNA = test: MPCC LMA-Luminex CYP3A4 mRNA; assay type: cell-based, human; settings: 10µM
CYP1A2 mRNA = test: MPCC LMA-Luminex CYP1A2 mRNA; assay type: cell-based, human; settings: 10µM
CYP2C9 mRNA = test: MPCC LMA-Luminex CYP2C9 mRNA; assay type: cell-based, human; settings: 10µM
CYP2D6 mRNA = test: MPCC LMA-Luminex CYP2D6 mRNA; assay type: cell-based, human; settings: 10µM
CYP2C19 mRNA = test: MPCC LMA-Luminex CYP2C19 mRNA; assay type: cell-based, human; settings: 10µM
CYP2D8 mRNA = test: MPCC LMA-Luminex CYP2D8 mRNA; assay type: cell-based, human; settings: 10µM
MAOA mRNA = test: MPCC LMA-Luminex MAOA mRNA; assay type: cell-based, human; settings: 10µM
MAOB mRNA = test: MPCC LMA-Luminex MAOB mRNA; assay type: cell-based, human; settings: 10µM
[5] = test system: NCI60 human tumor cell lines; test: NCI60 5-dose (dose-response) assay; assay type: cell-based
Description: Columns IE-KK. NCI: Misra group (data presented first in this paper). NCI60 anti-tumor cell activity. Methods: […] These 60 cell lines, along with others, have been developed at NCI and have been maintained and distributed for research purposes by NCI for over 25 years. The experimental readout provides both inhibition of cell growth and cell kill. The screen was originally designed to prioritize agents for further evaluation. […] This is the same as for the 5-dose assay, described on http://dtp.cancer.gov/branches/btb/ivclsp.html. […] Testing beyond the initial screen: There were 133 compounds that passed threshold to proceed to 5-dose (dose-response) (data are available for the 133 compounds at the DTP public website (dtp.cancer.gov) by searching either the MMV number or NSC number). After examination of the 5-dose data, 10 compounds were selected for repeat testing based generally on potency, differential cell activity or activity on an individual cell lines or cell line panel. A summary of the data for the 10 compounds of interest is in the table below.

Toxoplasma gondii TS-4 = settings: ref [84]; read-out: Toxoplasma gondi TS4 EC50; cited from earlier work
[6] = mean over cell lines of one experiment, listed as 766523/2

CCN(CC)c1cc(C)c2cc(NC(=O)c3cccc(OC)c3)ccc2n1 [MMV000498]
Strongyloides stercoralis % dead [1]: 25%
Onchocerca lienalis % motility [2]: 100%
Aedes aegypti % dead 48hr (Aedes aegypti): 19%
Mycobacterium marinum relative growth DMSO=1 Antibiotic Assay (Mycobacterium marinum): 0.98
solubility kinetic [3]: < 20 µM
P. berghei Liver stage activity summary [4]: tox (tox (toxic) if >50% HepG2)
P. berghei Liver stage infection rate rep1 (luciferase) [4]: -3.74%
P. berghei Liver stage infection rate rep2 (luciferase) [4]: -5.7%

COc1cc2cc(C(=O)Nc3ccccc3)c(N)nc2cc1OC [MMV006767]
Onchocerca lienalis % motility [2]: 100%
Aedes aegypti % dead 48hr (Aedes aegypti): -3%
solubility kinetic [3]: > 20 µM
Human hepatocyte CYP3A4 mRNA induction, 0.0 normal (CYP3A4 mRNA): 0.0216
Human hepatocyte CYP1A2 mRNA induction, 0.0 normal (CYP1A2 mRNA): -0.09
Human hepatocyte CYP2C9 mRNA induction, 0.0 normal (CYP2C9 mRNA): -0.09
Human hepatocyte CYP2D6 mRNA induction, 0.0 normal (CYP2D6 mRNA): -0.21
Human hepatocyte CYP2C19 mRNA induction, 0.0 normal (CYP2C19 mRNA): -0.39
Human hepatocyte CYP2D8 mRNA induction, 0.0 normal (CYP2D8 mRNA): -0.10
Human hepatocyte MAOA mRNA induction, 0.0 normal (MAOA mRNA): 0.23
Human hepatocyte MAOB mRNA induction, 0.0 normal (MAOB mRNA): -0.22
P. berghei Liver stage infection rate rep1 (luciferase) [4]: 27%
P. berghei Liver stage infection rate rep2 (luciferase) [4]: 61%

CCN1CCN(c2cc(C)c3cc(NC(=O)c4ccc(OC)c(OC)c4)ccc3n2)CC1 [MMV019074]
Onchocerca lienalis % motility [2]: 100%
Aedes aegypti % dead 48hr (Aedes aegypti): -20%
solubility kinetic [3]: < 20 µM
Notes (NCI60 5-dose activity pattern) [5]: Specific lines sensitive
MGLI50 = Mean Growth Log I50 ([5]; 5-dose, mean over NCI60 panel): -4.91
_MID Log10GI50 [5, 6]: -4.8 Molar and -5.03 Molar
_MID Log10LC50 [5, 6]: -4.0 Molar and -4.04 Molar
_MID Log10TGI [5, 6]: -4.05 Molar and -4.25 Molar
P. berghei Liver stage activity summary [4]: tox (tox (toxic) if >50% HepG2)
P. berghei Liver stage infection rate rep1 (luciferase) [4]: -3.74%
P. berghei Liver stage infection rate rep2 (luciferase) [4]: -4%

COc1ccc(C(=O)Nc2ccc3nc(N4CCCCC4)cc(C)c3c2)cc1OC [MMV019758]
Onchocerca lienalis % motility [2]: 100%
Aedes aegypti % dead 48hr (Aedes aegypti): 6%
Mycobacterium marinum relative growth DMSO=1 Antibiotic Assay (Mycobacterium marinum): 1.01
solubility kinetic [3]: < 20 µM
P. berghei Liver stage activity summary [4]: tox (tox (toxic) if >50% HepG2)
P. berghei Liver stage infection rate rep1 (luciferase) [4]: -4%
P. berghei Liver stage infection rate rep2 (luciferase) [4]: -4%
EC50 (Toxoplasma gondii TS-4): 25.7 µM

CCOC(=O)c1cnc2ccc(OC)cc2c1NCc1ccccc1 [MMV665813]
Onchocerca lienalis % motility [2]: 100%
Aedes aegypti % dead 48hr (Aedes aegypti): -2%
Mycobacterium marinum relative growth DMSO=1 Antibiotic Assay (Mycobacterium marinum): 0.86
solubility kinetic [3]: < 20 µM
Human hepatocyte CYP3A4 mRNA induction, 0.0 normal (CYP3A4 mRNA): -0.06
Human hepatocyte CYP1A2 mRNA induction, 0.0 normal (CYP1A2 mRNA): -0.15
Human hepatocyte CYP2C9 mRNA induction, 0.0 normal (CYP2C9 mRNA): -0.17
Human hepatocyte CYP2D6 mRNA induction, 0.0 normal (CYP2D6 mRNA): -1.27
Human hepatocyte CYP2C19 mRNA induction, 0.0 normal (CYP2C19 mRNA): -0.35
Human hepatocyte CYP2D8 mRNA induction, 0.0 normal (CYP2D8 mRNA): -0.79
Human hepatocyte MAOA mRNA induction, 0.0 normal (MAOA mRNA): -0.36
Human hepatocyte MAOB mRNA induction, 0.0 normal (MAOB mRNA): -1.05
P. berghei Liver stage activity summary [4]: tox (tox (toxic) if >50% HepG2)
P. berghei Liver stage infection rate rep1 (luciferase) [4]: -3.22%
P. berghei Liver stage infection rate rep2 (luciferase) [4]: -4%
